Results taken from patent US20200095280A1, “Methods of using GM6 in diagnosing and treating Alzheimers disease” (Genervon Biopharmaceuticals LLC, priority 2016, published 2020).
Where no end group is shown, it is not given here.

Assay: Blood brain barrier transit: ELISA of brain homogenate after IV injection
Type: in vivo, C57BL6 mice
Conditions: single bolus IV 0.2 and 2.0 mg/kg, four hours; vs control P=0.0001
Experimental: The ability to transit to the brain was tested. C57BL6 mice were injected with a single bolus IV tail vein injection of GM6 at 0.2 and 2.0 mg/kg. At four hours, the animals were sacrificed, and half of the brain was frozen for ELISA analysis.

FSRYAR [GM6, FSRYAR]
GM6 in brain homogenate supernatant (ELISA): detected GM6 at statistically significant levels
